Experimental data from ChEMBL document CHEMBL4387712, “Development of the binding molecules for the RNA higher-order structures based on the guanine-recognition by the G-clamp” (Bioorg Med Chem Lett, 2019).
Activity calls are given as the source filed them. The rule behind the calls is not given here.

What was measured:
[1] = Binding affinity to sh(-CUA-) RNA (unknown origin) assessed as change in UV spectrum at 10 uM by UV-vis spectral analysis
[2] = Binding affinity to sh(-GUG-) RNA (unknown origin) assessed as hypochromic effect at 10 uM by UV-vis spectral analysis
[3] = Binding affinity to sh(-CUA-) RNA (unknown origin) at 10 uM by circular dichroism
[4] = Binding affinity to overhang G2 RNA mutant (unknown origin) assessed as increase in fluorescence intensity at 10 nM by fluorescence spectra analysis
[5] = Binding affinity to sh(-GUG-) RNA (unknown origin) assessed as bathochromic effect at 10 uM by UV-vis spectral analysis
[6] = Binding affinity to sh(-GUG-) RNA (unknown origin) at 10 uM by circular dichroism
[7] = Binding affinity to stem-duplex RNA (unknown origin) at 10 nM by fluorescence spectra analysis
[8] = Binding affinity to sh(-GUA-) RNA (unknown origin) assessed as increase in fluorescence at 10 nM by fluorescence spectra analysis relative to control
[9] = Binding affinity to sh(-CUG-) RNA (unknown origin) assessed as increase in fluorescence at 10 nM by fluorescence spectra analysis relative to control
[10] = Binding affinity to stem-loop RNA (unknown origin) at 10 nM by fluorescence spectra analysis
[11] = Binding affinity to sh(-GUG-) RNA (unknown origin) assessed as increase in fluorescence at 10 nM by fluorescence spectra analysis relative to control
[12] = Binding affinity to hairpin G2 RNA mutant (unknown origin) assessed as increase in fluorescence intensity at 10 nM by fluorescence spectra analysis
[13] = Binding affinity to mismatch G2 RNA mutant (unknown origin) assessed as increase in fluorescence intensity at 10 nM by fluorescence spectra analysis
[14] = Binding affinity to sh(-GUA-) RNA (unknown origin) by fluorescence titration method
[15] = Binding affinity to sh(-GUG-) RNA (unknown origin) by fluorescence titration method
[16] = Binding affinity to sh(-CUG-) RNA (unknown origin) by fluorescence titration method
[17] = Binding affinity to wild-type full length pre-miRNA-17 (unknown origin) assessed as increase in fluorescence intensity at 10 nM by fluorescence spectra analysis
[18] = Binding affinity to ssRNA-5 mer (unknown origin) assessed as increase in fluorescence at 10 nM by fluorescence spectra analysis
[19] = Binding affinity to sh(-CUA-) RNA (unknown origin) assessed as increase in fluorescence at 10 nM by fluorescence spectra analysis
[20] = Binding affinity to G0 RNA (unknown origin) at 10 nM by fluorescence spectra analysis
[21] = Binding affinity to sh(-CUG-) RNA (unknown origin) at 10 nM by fluorescence spectra analysis
[22] = Binding affinity to ssRNA-5 mer (unknown origin) at 10 nM by fluorescence spectra analysis
[23] = Binding affinity to sh(-CUA-) RNA (unknown origin) at 10 nM by fluorescence spectra analysis
[24] = Binding affinity to sh(-GUA-) RNA (unknown origin) at 10 nM by fluorescence spectra analysis
[25] = Binding affinity to sh(-GUG-) RNA (unknown origin) at 10 nM by fluorescence spectra analysis

CN(CCCNC(=O)Cn1cc2c(nc1=O)Nc1c(OCCN)cccc1O2)CCCNC(=O)Cn1cc2c(nc1=O)Nc1c(OCCN)cccc1O2
Activity [1]: inactive
Activity [2]: Active
Activity [3]: inactive
Activity [4]: Active
Activity [5]: Active
Activity [6]: Active
Activity [7]: Active
fold change (FC) [8]: 2.6
fold change (FC) [9]: 4.1
Activity [10]: Active
Activity [11]: Active
fold change (FC) [11]: 7
Activity [12]: Active
Activity [13]: Active
Kd [14]: 103 nM
Kd [15]: 9 nM
Kd [16]: 27 nM
Activity [17]: Active
Activity [18]: inactive
Activity [19]: inactive
Activity [20]: Active

CN(C)CCCNC(=O)Cn1cc2c(nc1=O)Nc1c(OCCN)cccc1O2
Activity [21]: Active
Activity [22]: inactive
Activity [23]: inactive
Activity [24]: inactive
Kd [14]: 202 nM
Kd [16]: 155 nM
Activity [25]: Active
